According to patent US9061984B2 (University of Louisville Research Foundation, Inc., priority 2008, dated 2015):
Values after ≈ are worked out from the molar mass of the structure shown. Like-named read-outs stand apart in the source and are kept apart here.

Key:
[1] = test system: L. amazonensis Lma CL1; experiment: Activity against macrophages infected with Leishmania amastigotes; conditions: Leishmania amazonensis, Macrophage
Experimental: (§3) A cloned line of Leishmania amazonensis(strain MHOM/BR/76/LTB-012) was used in all experiments. Axenically grown amastigote forms of L. amazonensis were maintained by weekly subpassages in MAA/20 medium (Sereno and Lemesre, Antimicrobial Agents and Chemotherapy 41, 972-976 (1997)) at 32±1° C. in 25 cm^2 tissue culture flasks. L. peruviana (strain MHOM/PE/LCA08) and L. braziliensis (strainMHOM/PE/PER006) were maintained in the promastigote stage in a biphasic medium (blood agar with 0.89% NaCl, pH 7.4) at 24° C., with sub-passage every 3 to 4 days. Promastigotes (5×10^6 parasites) were then transferred to 25 cm2 tissue culture flasks containing 5 ml of M199 medium supplemented with 10% foetal bovine serum (FBS), pH 7.4. After 4 days, exponential phase promastigotes were centrifuged for 10 minutes at 1500 g and 4° C. The supernatant was discarded and replaced by fresh M199 medium supplemented with 20% FBS, pH 5.5. Axenic amastigotes transformation was then induced by increasing the temperature to 34° C. and incubating for 96 h (Teixeira et al., Parasitology Research 88, 963-968 (2002)).
(§4) Extracted cells were immediately deposited on sterile 4×4 mm cover glasses and placed in each well of a 96-well plate. Plates were incubated for 24 h at 37° C., 5% CO2 to allow cell adhesion (Castillo et al, Journal of Ethnopharmacology 112, 410-414 (2007)). Pre-warmed complete M199 medium was used twice to remove non-adherent cells. A neutral red method (Fautz et al., Mutation Research 253, 173-179 (1991)) was employed to determine cell concentration. Approximately 7×10^4 viable cells were deposited in each well for adhesion.
(§5) Infection of macrophages by amastigotes was determined as follows. […] Twelve hours after infection, a solution of the compounds to be tested was added to the cultures at various concentrations and maintained at 37° C. in 5% CO2 for a further forty-eight hours more. The plates were fixed with methanol and stained with 10% Giemsa stain. The percentage of infected macrophages was determined microscopically at 100 times magnification. The number of intracellular amastigotes was determined in 300 cells. Following Delorenzi et al. Antimicrobial Agents and Chemotherapy, 45, 1349-1354 (2001)) the percentage of infection rate (% IR) of each culture was calculated as follows: % IR=100−(infection rate of the treated culture/infection rate of the untreated culture)×100.
(§6) All experiments were performed in triplicate. ANOVA was used to test for statistical significance of differences (Epi-Info, Statview student program). The total parasite burden was calculated as a mean number of amastigotes per cells multiplied by the number of infected macrophages.

[2] = test system: L. amazonensis; conditions: for Reduction of parasite burden (column After 7 weeks, analyzed after 6 weeks treatment): 5 mg/kg/day intralesional, after 6 weeks treatment (footnote d); for Mean lesion size (mm) / Mean parasite quantification (per 10^6) in lesion per mg (±SD) / Mean lesion wt (mg) (±SD) / % Variation of lesion wt / % reduction of parasite burden in the lesion: Glucantime 33 mg Sb(v)/kg/day; for Mean lesion wt (mg) (±SD): BALB/c mice n=10; for % Variation of lesion wt / % reduction of parasite burden in the lesion: vs control
[3] = test system: peritoneal macrophages; experiment: Toxicity to peritoneal macrophages (Trypan Blue count); type: cell-based, BALB/C mouse; conditions: Mus musculus, Peritoneal macrophage, 48 h; Table 7; read-out: IC50 Macrophage
[4] = test system: L. braziliensis PER006; experiment: Activity against macrophages infected with Leishmania amastigotes; conditions: Leishmania braziliensis, Macrophage, read-out: IC50 L. braziliensis PER006
Experimental: as §3, §4, §5, §6

[5] = test system: axenic amastigotes of L. amazonensis (strain MHOM/BR/76/LTB-012); experiment: microbe, parasite or virus in culture; conditions: Leishmania amazonensis
[6] = test system: L. peruviana LCA08; experiment: Activity against macrophages infected with Leishmania amastigotes; conditions: Leishmania peruviana, Macrophage, read-out: IC50 L. peruviana LCA08
[7] = test system: Trypanosoma cruzi (Tulahuen C4); experiment: In vitro anti-T. cruzi activity (β-galactosidase CPRG colorimetric assay in VERO monolayer); type: cell-based
[8] = Cytotoxicity on VERO cells (MTT), anti-T. cruzi study; conditions: African green monkey, VERO cells
[9] = test system: VERO cells; experiment: as above; conditions: Chlorocebus sabaeus, Vero, read-out: IC50 VERO, Table 3
[10] = test system: M. tuberculosis H37Rv; experiment: Conventional aerobic (MABA) culture assay, luminescence MIC; type: cell-based, Mycobacterium tuberculosis
[11] = test system: DU145 cells; experiment: Cell growth inhibition bioassay (sulforhodamine B); type: cell-based, human; conditions: Homo sapiens, DU-145; 48 h, SRB; read-out: GI50 in indicated cell line: DU145
Method in brief: (§1)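 Growth inhibition was measured colorimetrically with sulforhodamine B staining and expressed as percent inhibition relative to solvent-treated controls. Cell lines were human: MCF-7 breast adenocarcinoma, DU145 and PC3 prostate carcinoma/adenocarcinoma, H460 large cell lung cancer.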

[12] = test system: MCF-7 cells; experiment: Cell growth inhibition bioassay (sulforhodamine B); type: cell-based, human; conditions: Homo sapiens, MCF7; 48 h, SRB; read-out: GI50 in indicated cell line: MCF-7
Method in brief: as §1

[13] = test system: HT-29 cells; experiment: Cell growth inhibition bioassay (sulforhodamine B); type: cell-based, human; conditions: Homo sapiens, HT-29; 48 h, SRB; read-out: GI50 in indicated cell line: HT-29
Method in brief: (§2)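 Cells were exposed to compound alongside matched solvent controls, then stained with sulforhodamine B. Percent growth inhibition was calculated from dye absorbance against the control.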

[14] = test system: M-14 cells; experiment: Cell growth inhibition bioassay (sulforhodamine B); type: cell-based, human; conditions: Homo sapiens, M14; 48 h, SRB; read-out: GI50 in indicated cell line: M-14
Method in brief: as §2

[15] = test system: K562 cells; experiment: Cell growth inhibition bioassay (sulforhodamine B); type: cell-based, human; conditions: Homo sapiens, K562; 48 h, SRB; read-out: GI50 in indicated cell line: K562
Method in brief: as §2

[16] = test system: H460 cells; experiment: Cell growth inhibition bioassay (sulforhodamine B); type: cell-based, human; conditions: Homo sapiens, NCI-H460; 48 h, SRB; read-out: GI50 in indicated cell line: H460
Method in brief: as §1

[17] = test system: VERO cells; experiment: Cell growth inhibition bioassay (sulforhodamine B); type: cell-based, African Green Monkey; conditions: Chlorocebus sabaeus, Vero; 48 h, SRB; read-out: GI50 in indicated cell line: VERO
Method in brief: as §2

[18] = Cytotoxicity VERO cell (Table 6); conditions: African green monkey, VERO cells
[19] = test system: 3T3 cells; experiment: Cell growth inhibition bioassay (sulforhodamine B); type: cell-based, mouse; conditions: Mus musculus, NIH3T3; 48 h, SRB; read-out: GI50 in indicated cell line: 3T3
Method in brief: as §2

[20] = test system: axenic amastigotes of L. amazonensis (strain MHOM/BR/76/LTB-012); conditions: Table 8b
[21] = Toxicity to peritoneal macrophages (Trypan Blue count); type: cell-based, BALB/C mouse; conditions: BALB/C, mouse, Cytotoxicity Macrophages IC50
[22] = 48 h, read-out: IC50 L. amazonensis Lma CL1
[23] = compounds 5 mg/kg/day, Glucantime 33 mg/kg/day, intralesional
[24] = 72 h, read-out: IC50 L. amazonensis
[25] = after 4 weeks treatment, intralesional, compounds 5 mg/kg/day
[26] = after 7 weeks treatment, intralesional, compounds 5 mg/kg/day

C=CCOc1cc(/C=C/C(=O)c2c(O)cc(O)cc2OC)cc(OCC=C)c1Br [Compound I-42, (2E)-3-(3,5-Bis(2-propenyloxy)-4-bromophenyl)-1-(2,4-dihydroxy-6-methoxyphenyl)-2-propen-1-one]
IC50 [1, 22]: 4.1 µM | Reduction of parasite burden (column After 7 weeks, analyzed after 6 weeks treatment) [2]: 8^d % | Lesion diameter [2, 23]: 4.6 mm | Reduction of parasite burden After 4 weeks [2, 23]: 9% | IC50 [3]: 11.5 µM | IC50 ([4]; 48 h): 14.4 µM | IC50 [5, 24]: 1.1 µM

COc1cc(O)cc(O)c1C(=O)/C=C/c1ccco1 [Compound I-43, (2E)-1-(2,4-Dihydroxy-6-methoxyphenyl)-3-(2-furanyl)-2-propen-1-one]
IC50 ([6]; 48 h): 34.2 µM | IC50 [1, 22]: 17 µM | IC50 [3]: 384 µM | IC50 ([4]; 48 h): 30.4 µM | IC50 [5, 24]: 4.6 µM

C=CCOc1cc(OC)c(C(=O)/C=C/c2ccccn2)c(OCC=C)c1 [Compound I-27, (2E)-1-[2-Methoxy-4,6-bis(2-propenyloxy)phenyl]-3-(2-pyridinyl)-2-propen-1-one]
IC50 ([6]; 48 h): 4 µM | inhibition at 10 µg/mL ([7]; Trypanosoma cruzi, TULAHUEN, Vero, 120 h, 10 μg/mL of each compound, 120 hours, read-out: T. cruzi Inhib. (%)): 77.2% | IC50 ([7]; Trypanosoma cruzi, TULAHUEN, Vero, Table 2, read-out: IC50 - T. cruzi): 0.67 µg/mL | IC50 ([7]; Trypanosoma cruzi, TULAHUEN, Vero, Table 3, read-out: IC50 T. cruzi): 1.9 µM | IC50 [1, 22]: 0.9 µM | IC50 ([1]; read-out: bioactivities (IC50) in macrophage-infected model): 0.9 to 4 µM | Reduction of parasite burden (column After 7 weeks, analyzed after 6 weeks treatment) [2]: 25^d % | Lesion diameter [2, 23]: 4.1 mm | Reduction of parasite burden After 4 weeks [2, 23]: −4% | IC50 [3]: 12.5 µM | IC50 ([4]; 48 h): 1.4 µM | IC50 ([8]; IC50 - VERO Cytotoxicity, Table 2): 1 µg/mL (≈ 2.85 µM) | IC50 [9]: 2.8 µM | IC50 [5, 24]: 1.1 µM

CCC(CC)=NNc1ncnc2sc3c(c12)CCCC3 [II-48]
IC50 [6]: 2 µg/mL | MIC ([10]; Mycobacterium tuberculosis, 168 h, aerobic, 7 days, H37Rv): 46.2 µg/mL (≈ 160 µM) | Selectivity Index H37Rv ([10]; VERO vs MABA MIC): 0.7 | Selectivity Index Lab B ([7]; IC50, VERO/IC50, T. cruzi, Lab B): 1.0 | IC50 ([7]; Trypanosoma cruzi, TULAHUEN, Vero, Lab A, read-out: T. cruzi IC50 Lab A): 4.8 µg/mL | IC50 ([7]; Trypanosoma cruzi, TULAHUEN, Vero, Lab B, read-out: T. cruzi IC50 Lab B): 6 µg/mL | GI50 [11]: 4.3 µg/mL (≈ 14.9 µM) | GI50 [12]: 4.4 µg/mL (≈ 15.3 µM) | GI50 [13]: 11.2 µg/mL (≈ 38.8 µM) | GI50 [14]: 5.9 µg/mL (≈ 20.5 µM) | GI50 [15]: 3.3 µg/mL (≈ 11.4 µM) | GI50 [16]: 4.4 µg/mL (≈ 15.3 µM) | GI50 [17]: 7.4 µg/mL (≈ 25.7 µM) | IC50 [18]: 32.9 µg/mL (≈ 114 µM) | GI50 [19]: 1.4 µg/mL (≈ 4.85 µM) | Mean lesion size (mm) [2, 25]: 2.8 mm | Mean parasite quantification (per 10^6) in lesion per mg (±SD) [2, 25]: 0.60 (±0.44) amastigotes (×10^6)/mg | Mean lesion wt (mg) (±SD) [2, 25]: 38.2 (±11.4) mg | % Variation of lesion wt [2, 25]: 37% | % reduction of parasite burden in the lesion [2, 25]: 65% | Mean lesion size (mm) [2, 26]: 4.9 mm | Mean parasite quantification (per 10^6) in lesion per mg (±SD) [2, 26]: 1.53 (±0.18) amastigotes (×10^6)/mg | Mean lesion wt (mg) (±SD) [2, 26]: 85.0 (±4.5) mg | % Variation of lesion wt [2, 26]: 5% | % reduction of parasite burden in the lesion [2, 26]: 17% | Selectivity Index [20]: 8.5 | IC50 at 48 h [21]: 46.7 µM | IC50 [4]: 3.2 µg/mL | IC50 ([8]; Cytotoxicity VERO Lab B, Lab B): 6 µg/mL (≈ 20.8 µM) | IC50 ([5]; read-out: L. amazonensis IC50): 5.5 µM

COCOc1cc(OC)c(C(=O)/C=C/c2ccc(OC)cc2)c(OCOC)c1 [Compound I-44]
IC50 ([6]; 48 h): 111 µM | IC50 [1, 22]: 12.1 µM | Lesion diameter [2, 23]: 4.7 mm | Reduction of parasite burden After 4 weeks [2, 23]: 11% | Reduction of parasite burden After 7 weeks ([2]; compounds 5 mg/kg/day, Glucantime 33 mg/kg/day, intralesional, after 7 weeks): 17% | IC50 [3]: > 250 µM | IC50 ([4]; 48 h): 5.15 µM | IC50 [5, 24]: 1.3 µM
